Measurements taken from patent US20230242538A1, “PanK Modulators and Methods Using Same” (YALE UNIVERSITY, priority 2020, published 2023).
Converted amounts (≈) assume the structure as drawn. Like-named read-outs stand apart in the source and are kept apart here.

Legend:
[1] = test system: WT cells (Saccharomyces cerevisiae JS91.15-23); assay: Spotting assay on YPD agar, WT yeast; type: cell-based; conditions: 30° C., 48 hours; amorolfine 10 ng/mL, fluconazole 10 μg/mL, terbinafine 10 μg/mL, amphotericin B 1 μg/mL
Description: (§1) Yeast strains (Saccharomyces cerevisiae) used in this study are JS91.15-23 (MATα his3 leu2 trp1 ura3) and JS91.14-24 (MATa ura3 his3 cab1ts) (Olzhausen, et al., 2009, Curr Genet 55, 163-173). Wild type and mutant strains were propagated either in YPD medium (2% bacto-peptone, 2% D-(+)-glucose and 1% yeast extract) or defined pantothenic acid-free (minimal) medium composed of Yeast Nitrogen Base (MP Biomedicals), supplemented with Complete Supplement Mixture (MP Biomedicals) and all vitamins except pantothenic acid. Where indicated, media were supplemented with appropriate concentrations of pantothenic acid.
(§2) Spotting assay were performed as follows. Pre-cultures of WT and cab1^ts yeast strains were prepared in YPD medium overnight at 30° C. Cells were harvested, washed, and diluted to 10^8 cells in 500 μL sterile water. Subsequent serial dilutions were made and 5 μL of cell suspensions were spotted on YPD agar plates lacking or supplemented with amorolfine 10 ng/mL, amphotericin B 1 μg/mL, fluconazole 10 μg/mL or terbinafine 10 μg/mL to achieve 10^6, 10^5, 10^4, 10^3, 10^2, and 10^1 cells per spot. Plates were incubated at 30° C. or 37° C. and imaged every 24 hours. For liquid assay in 96-well plate format, cells were pre-cultured overnight in liquid YPD medium at 30° C., washed three times in water and diluted to achieve 10^4 cells per well in 150 μL of minimal medium supplemented with 1 μM, 10 μM or 100 μM pantothenic acid and either lacking or supplemented with terbinafine (160 μg/ml). All plates were incubated at 30° C. Optical density measurements were taken with a BioTek SynergyMx microplate reader (OD630) every 8 hours for a total of 96 hours. Relative time to mid-log phase was calculated by first graphing growth curves of the varying concentrations of terbinafine for each concentration of pantothenic acid, and then determining the value at which the untreated curve reached saturation, and dividing it by 2 to represent the mid-log value. Dividing the time to mid-log phase of treated cells by the time to mid-log phase of untreated gave the relative time to mid-log phase.

[2] = test system: cab1^ts cells (Saccharomyces cerevisiae JS91.14-24); assay: Spotting assay on YPD agar, cab1ts yeast; type: cell-based; conditions: 30° C., 48 hours; amorolfine 10 ng/mL, fluconazole 10 μg/mL, terbinafine 10 μg/mL, amphotericin B 1 μg/mL
Description: as §1, §2

[3] = test system: WT cells (Saccharomyces cerevisiae); assay: Liquid growth assay in minimal medium, WT yeast; type: cell-based
Description: as §1, §2

[4] = test system: cab1^ts cells (Saccharomyces cerevisiae); assay: Liquid growth assay in minimal medium, cab1ts yeast; type: cell-based; conditions: for relative time to mid-log phase in the presence vs. absence of the drug: 160 μg/mL terbinafine
Description: as §1, §2

[5] = test system: WT cells (Saccharomyces cerevisiae); assay: Drug-drug interaction with α-PanAm, checkerboard / isobologram; type: cell-based; conditions: n=2
Procedure: Clin. Microbiol. 43:140-143. The isobologram was produced by solving for the sum 50% fractional inhibitory concentration (ΣFIC50) using the equation: The data from the time-point where the 0 μg/mL terbinafine curve reached saturation was used to generate percent inhibition values, representing growth inhibition based on the concentration of terbinafine. This was done by dividing the value of interest by the untreated (0 μg/mL terbinafine) value, multiplying by 100 to get a percentage, and then subtracting that percentage from 100, representing 100% inhibition. The resulting values were used to create an inhibition curve, using the best fit function to generate an MIC50. […] The resulting MIC50 values were plugged into the ΣFIC50 equation, and the ΣFIC50 values were used to generate the curve.

[6] = test system: yeast; conditions: cited from earlier work
[7] = 1 μg/mL amphotericin B, 1 μM PA

| Compound | growth of WT cells on YPD agar in the presence of the drug [1] | growth of cab1^ts cells on YPD agar in the presence of the drug [2] | relative time to mid-log phase in the presence vs. absence of the drug [3, 7] | growth of WT cells in liquid medium ([3]; 1 μg/mL amphotericin B, 100 μM PA) | growth of cab1^ts cells in liquid medium [4, 7] | drug-drug interaction pattern with α-PanAm (isobologram) [5] | mid-log phase reached at (time) ([3]; 100 μM PA, single agent: squalene 100 μg/mL or terbinafine 80 μg/mL) [hours] | mid-log phase reached at (time) ([3]; 100 μM PA, terbinafine 80 μg/mL in the presence of 100 μg/mL squalene) [hours] | relative time to mid-log phase in the presence vs. absence of the drug ([3]; 160 μg/mL terbinafine, 1 μM PA) | relative time to mid-log phase in the presence vs. absence of the drug ([3]; 160 μg/mL terbinafine, 10 μM PA) | relative time to mid-log phase in the presence vs. absence of the drug ([3]; 160 μg/mL terbinafine, 100 μM PA) | relative time to mid-log phase in the presence vs. absence of the drug ([4]; 1 μM PA) | relative time to mid-log phase in the presence vs. absence of the drug ([4]; 10 μM PA) | relative time to mid-log phase in the presence vs. absence of the drug ([4]; 100 μM PA) | MIC50 ([6]; medium supplemented with 1 μM pantothenic acid) [µg/mL] | MIC50 ([6]; medium with 100 nM pantothenic acid) [µg/mL] |
| --- | --- | --- | --- | --- | --- | --- | --- | --- | --- | --- | --- | --- | --- | --- | --- | --- |
| C[C@@H]1[C@H](O)[C@@H](C)/C=C/C=C/C=C/C=C/C=C/C=C/C=C/[C@H](O[C@@H]2O[C@H](C)[C@@H](O)[C@H](N)[C@@H]2O)C[C@@H]2O[C@](O)(C[C@@H](O)C[C@@H](O)[C@H](O)CC[C@@H](O)C[C@@H](O)CC(=O)O[C@H]1C)C[C@H](O)[C@H]2C(=O)O [amphotericin B] | only slightly inhibited | reduced dramatically | 2.1 | not significantly affected | did not grow whatsoever | synergism |  |  |  |  |  |  |  |  |  |  |
| CN(C/C=C/C#CC(C)(C)C)Cc1cccc2ccccc12 [terbinafine] | greatly reduced | not affected |  |  |  | antagonism | 47 | 61 | 1.8 | 2.1 | 2.3 | 1.1 | 1.4 | 1.6 |  |  |
| CC(CNC(=O)[C@H](O)C(C)(C)CO)C(=O)NCCc1ccccc1 (stereo partly drawn) [α-PanAm] |  |  |  |  |  |  |  |  |  |  |  |  |  |  | ~7.6 (≈ 22.6 µM) | ~1.9 (≈ 5.65 µM) |
